In assay [1] the test system is LN229 cells. The assay is described as follows: DAPI staining, fluorescence microscopy, LN229. It is filed as cell-based, human. As to conditions: LN229, 40 μM, 72 h. How it is done: Flow cytometry. For gaining better insights into the mechanisms of action of the ruthenium complexes, MCF‐7 and LN229 cells incubated with an IC50 dose of 3 or 4, were analyzed via flow cytometry. Several staining protocols were carried out in parallel, in independent experiments: i) AnnV/PI for the detection of apoptotic cell death, ii) AO for the detection of acidic vacuoles, iii) ApoStat for checking caspase activation, iv) CFSE for detecting interference with cellular proliferation, and v) DAPI for the detection of morphological signs of apoptosis. Untreated cells or cells treated only with BSA (control) were also measured, as reference for BSA‐free and BSA‐containing drug formulations, respectively. […] Channels FL1 (green emission), FL2 (orange emission) and/or FL3 (dark red emission) were used for fluorescence detection, according to the specific staining agent. Sideward Scatter (SSC) for MCF‐7 cells treated with 4 or BSA−4 was also analyzed, with respect to the control, for detection of shifts of cell granularity. […]
FCS, 2 mM L‐glutamine, 0.01% sodium pyruvate and antibiotics, at 37 °C in a humidified atmosphere with 5% CO2. […] Cells were counted and seeded in 96‐well plates and incubated overnight, as described above. […]
Staining Protocols for Flow Cytometric Analysis. […] Finally, cells were washed in PBS, resuspended in PBS (or AnnV‐binding buffer for AnnV/PI), and analysed. […]

Assay [2] deals with MCF‐7 cells. The assay is described as follows: CV viability of MCF‐7 exposed to 3 together with autophagy inhibitors. The class given is cell-based, human. To be noted: MCF‐7, 3 together with CQ or 3‐MA (0.5 mM), 72 h, CV assay. How it is done:
Colorimetric assays for cellular viability. […] Cells were then washed with tap water, dried in air, and the CV dye was dissolved in 33 % (w/v) acetic acid solution. […] The dye was then discarded, and the formed formazan (purple) was dissolved in DMSO. The absorbance was measured with an automated microplate reader at λmax 540 nm, with the reference λmax 670 nm. Untreated cells or cells treated only with BSA (control) were also measured, as reference for BSA‐free and BSA‐containing drug formulations, respectively. […] Cell viability is expressed as percentage (%) relative to control (untreated cultures).58 Experiments were run in three independent replicates. […] Non‐linear regression analyses of the obtained results was done using GraphPad Prism software to calculate IC50 values. page 17: Figure S15. […] MA, 0.5 mM) for 72 h, from CV assay. Data are expressed as indicated above for Figure S11. * indicates statistically significant (p < 0.05) values, with respect to the control, # with respect to cells treated with 3. S16 (1 picture or pasted object on this page, not shown here)

The text below walks through data of paper PMC6973020, “Quinoline‐Conjugated Ruthenacarboranes: Toward Hybrid Drugs with a Dual Mode of Action” (Chemmedchem, 2019).

As for “closo ‐[3‐(η^6‐p‐Cymene)‐1‐(quinolin‐8‐yl‐acetate)‐3,1,2‐RuC2B9H10] [Compound 4]”, the “morphological features of apoptosis (DAPI)” value in assay [1] is reported as “several typical morphological features of apoptosis”.
As for “closo‐ [Compound 3, closo‐ [3‐(η^6‐p‐Cymene)‐1‐(CH2COOH)‐3,1,2‐RuC2B9H10]]”, in assay [2], the “cell viability on co‐treatment with an inhibitor of autophagy” value is given as “restoration of cellular viability”.
